From US20130231334A1, “METHODS OF CONTROLLING NEONICOTINOID RESISTANT APHIDS” (SYNGENTA CROP PROTECTION LLC, priority 2010, published 2013)

Experiments:
Assay type in all cases: in vivo
[1] = test system: susceptible or neonicotinoid-resistant Myzus persicae population; test: Pea seedling spray test, mortality of susceptible and neonicotinoid-resistant populations (Example 2); details: ratio of rates for 80% mortality, resistant versus susceptible Myzus persicae; BP80 = lowest known rate providing 80% or more mortality; 6 days after treatment; pea seedlings
Protocol: Pea seedlings, infested with a susceptible or neonicotinoid-resistant Myzus persicae population of mixed ages, respectively, are treated with the test solutions (200, 50, 12.5, 3, 0.8, 0.2, 0.05 ppm a.i.) in a turn table spray chamber. 6 days after treatment, samples are checked for mortality.
The results of the resistance factor at BP80 (lowest known rate providing 80% or more mortality) are indicated below.

[2] = test system: neonicotinoid insecticide resistant aphid strain; test: Leaf disc spray bioassay on chinese cabbage, aphid mortality (Example 1), resistant strain; details: resistant aphid strain from peach orchard, Avignon region, mixed age aphids, mortality 72 hours after treatment
Protocol: (§1) 5 cm leaf discs were taken from fully expanded chinese cabbage leaves and placed with the underside facing upwards onto water agar in 5 cm Petri dishes. The leaf discs are infested with between 30 and 40 mixed age aphids 24 hours prior to insecticide treatment. The leaf surface is sprayed with the appropriate test solutions in a Burkhard Potter Tower at an approximate water volume of […]. Test containers are stored at 21° C., 60% RH and 16:8 light/dark. Aphids were assessed for mortality 72 hours after treatment.

[3] = test system: neonicotinoid insecticide susceptible strain 4106A; test: Leaf disc spray bioassay on chinese cabbage, aphid mortality (Example 1), susceptible strain; details: susceptible strain 4106A (Rothamsted Research), mixed age aphids, mortality 72 hours after treatment
Protocol: as §1

SMILES	resistance factor at BP80 [1]	LC50 with 95% confidence limit, resistant strain [2]	LC50 with 95% confidence limit, susceptible strain [3]
CNC(=O)c1cnccc1C(F)(F)F [158062-76-1]	1		
CN/C(=N\[N+](=O)[O-])NCc1cnc(Cl)s1 [clothianidin]		904 (478-3616) ppm	0.33 (0.28-0.38) ppm
C/C(=N\C#N)N(C)Cc1ccc(Cl)nc1 [acetamiprid]		49.3 (35.2-72.0) ppm	0.55 (0.51-0.59) ppm
N#C/N=C1\SCCN1Cc1ccc(Cl)nc1 [thiacloprid]		>1000 ppm	0.38 (0.34-0.42) ppm
CN(O)C(=O)c1cnccc1C(F)(F)F [323180-93-4]	Not adequate control for 80% mortality on sensitive & resistance strains		
O=C(N=S(c1ccccc1)c1ccccc1)c1cnccc1C(F)(F)F [362724-14-9]	4		
NC(=O)c1cnccc1C(F)(F)F [158062-71-6]	4		
O=C(NCN1CCCC1)c1cnccc1C(F)(F)F [158063-50-4]	1		
Cc1noc(-c2cnccc2C(F)(F)F)n1 [276684-49-2]	<1		
CN/C(=N/CC1CCOC1)N[N+](=O)[O-] (stereo not drawn) [dinotefuran]		538 (435-696) ppm	9.95 (8.21-12.5) ppm
CC(C)N1CN=C(c2cnccc2C(F)(F)F)OC1=O [1098412-17-9]	1		
O=C(c1cnccc1C(F)(F)F)N(O)Cc1ccccc1 [323181-02-8]	>1		
O=C(NCc1ccc(Cl)cc1)c1cnccc1C(F)(F)F [158063-19-5]	>16		
N#CCNC(=O)c1cnccc1C(F)(F)F [flonicamid]		2.74 (0.53-6.81) ppm	1.65 (1.3-2.09) ppm
O=C(NCc1ccccn1)c1cnccc1C(F)(F)F [164149-37-5]	4		
CN1COCN(Cc2cnc(Cl)s2)/C1=N/[N+](=O)[O-] [thiamethoxam]	>250	148 (128-172) ppm	0.35 (0.3-0.41) ppm
CO/N=C(\C)CNC(=O)c1cnccc1C(F)(F)F	4		
CN(C)C(=O)c1cnccc1C(F)(F)F [158063-01-5]	1.7		
CCN(Cc1ccc(Cl)nc1)/C(=C/[N+](=O)[O-])NC [nitenpyram]		237 (93.7-3566) ppm	1.26 (1.03-1.61) ppm
